Values of other authors as cited in patent US6420614B1, “Process for obtaining 3′-epilutein” (Industrial Organica, S.A. DE C.V., priority 2000, dated 2002).

Tested on: egg yolk
Details: relative potency of zeaxanthin stereoisomers; (3R,3′R)-zeaxanthin = 100%

Row | Compound | potency in pigmenting of egg yolk [%]
1 | CC1=C(/C=C/C(C)=C/C=C/C(C)=C/C=C/C=C(C)/C=C/C=C(C)/C=C/C2=C(C)C[C@@H](O)CC2(C)C)C(C)(C)C[C@H](O)C1 [(3R, 3′R)-zeaxanthin (III), (3R,3′R)-zeaxanthin] | 100
2 | CC1=C(/C=C/C(C)=C/C=C/C(C)=C/C=C/C=C(C)/C=C/C=C(C)/C=C/C2=C(C)C[C@@H](O)CC2(C)C)C(C)(C)C[C@H](O)C1 [(3RS, 3′SR)-zeaxanthin (racemic), (3RS, 3′SR)-zeaxanthin] | 92
3 | CC1=C(/C=C/C(C)=C/C=C/C(C)=C/C=C/C=C(C)/C=C/C=C(C)/C=C/C2=C(C)C[C@H](O)CC2(C)C)C(C)(C)C[C@@H](O)C1 (single isomer, unassigned) [(3S, 3′S)-zeaxanthin (enantiomer)] | 86
4 | CC1=C(/C=C/C(C)=C/C=C/C(C)=C/C=C/C=C(C)/C=C/C=C(C)/C=C/C2=C(C)C[C@H](O)CC2(C)C)C(C)(C)C[C@H](O)C1 [(3R, 3′S)-zeaxanthin (meso, II), (3R,3′S)-zeaxanthin] | 37
